Experimental data taken from US20230355713A1, “PEPTIDE FOR THERAPEUTIC APPLICATIONS IN THE DERMATOLOGICAL FIELD” (Dompe' Farmaceutici S.P.A., priority 2020, published 2023).
Where no end group is shown, it is not given here.

What was measured:
[1] = test system: primary cell cultures of normal human melanocytes; assay: In vitro melanin production by melanocytes (melanin content by ELISA); format: cell-based; conditions: concentration at which 50% of the maximum concentration of cellular melanin is observed; cultured for one week
Experimental: The in vitro ability of the NGF 1-14 peptide and the NGF whole protein to activate melanin production by melanocytes was compared.
According to already established protocols, primary cell cultures of normal human melanocytes were seeded in Petri dishes and cultured for one week, with and without the presence of the NGF 1-14 peptide at various concentrations, using the whole human NGF protein as a control. The melanin content was measured with the ELISA enzyme immunoassay. The maximum melanin concentration, measured as the difference from baseline, was experimentally determined from the plateau of the dose response curves of NGF and NGF 1-14. The EC50 represents the concentration of NGF 1-14 or NGF at which 50% of the maximum concentration of cellular melanin is observed.

[2] = test system: mouse model of human vitiligo; assay: In vivo efficacy test: skin re-pigmentation, depigmentation score 0 to 5; design: species or system SCF transgenic mice of the C57BL6 line; conditions: 200 μg/mL in base cream, topical, twice a day for 8 weeks; 0 to 5 point scale
Experimental: The in vivo capacity of skin re-pigmentation by the NGF 1-14 peptide and the whole NGF protein was compared.
The study was conducted on a mouse model of human vitiligo.
SCF transgenic mice of the C57BL6 line, treated for 10-12 weeks to induce vitiligo using CD8+T cells specific for melanocytes, were shaved twice a week in the dorsal part affected by depigmentation, with an electric razor, in an area of about 6 cm×6 cm. The animals were divided into two groups of equal numbers (8 animals per group). On a first group of animals, topical administration was carried out in two sites of the shaved area spaced from both sides of the midline, applying on the left a topical preparation containing 200 μg/mL of NGF peptide in a base cream vehicle, while on the right side only the base cream (control) was applied. The same procedure was repeated on the second group of animals, applying on the left a topical preparation containing 200 μg/mL of NGF 1-14 peptide in a base cream vehicle, while on the right side only the base cream (control) was applied.
The application was spread evenly twice a day for 8 weeks, in the central part of the shaved area, on a surface of about 2 cm×2 cm. Starting from the second day and thereafter, the areas of interest were cleaned with a cloth before applying the preparations. The animals were kept away from possible sources of ultraviolet light irradiation.
Quantification of epidermal depigmentation was performed using a subjective scoring system based on a 0 to 5 point scale, where 5 represents the most severe degree of depigmentation, reported in the literature (Rebecca L. et al., Curr Protoc Immunol. (2019), 124(1)—February). A trained researcher blinded to the details of the experiment performed the evaluation at the treated site.

sensory nerve fibers = assay: Histological test: density of sensory nerve fibers in skin biopsies (NF200, TRPV1 antibodies); format: in vivo, SCF transgenic mice of the C57BL6 line; conditions: 200 μg/mL in base cream, after the 8-week treatment of example 2a
Description: The in vivo ability of the NGF 1-14 peptide and the NGF whole protein to increase the density of nerve endings was compared.
After the treatment described in example 2a, the animals were sacrificed and skin samples (3 biopsies per point) were taken both from the area treated with NGF1-14 or with NGF, and from the untreated area, for each animal, for the purpose of histological examination.
To evaluate the density of sensory nerve fibers, antibodies directed against the neurofilament protein 200 (NF200; Sigma) specific for large diameter fibers, and antibodies directed against the transient receptor potential vanilloid 1 (TRPV1, Neuromics) were used to measure peripheral sensory fibers (small diameter).

Sprague-Dawley rats = assay: In vivo tolerability test: plantar thermal hyperalgesia test (Hargreaves apparatus), paw retraction latency; conditions: for hyperalgesic activity compared to the saline group (paw retraction latency): 1, 3, 5 and 24 h after injection, P<0.001
Experimental: The in vivo intra-implant tolerability of the NGF 1-14 peptide was evaluated in comparison with the whole protein NGF.
Tyrode's isotonic solution containing the rh-NGF protein in concentrations from 5 to 20 μg/mL and the vehicle was administered intra-implantally in the dorsal region of Sprague-Dawley rats (10 animals for each concentration), in a volume of 0.05 mL using a very fine syringe.
Tyrode's isotonic solution containing the murine-NGF protein in concentrations from 5 to 20 μg/mL and the vehicle was administered intra-implantally in the dorsal region of Sprague-Dawley rats (10 animals for each concentration), in a volume of 0.05 mL using a very fine syringe.
Tyrode's isotonic solution containing the NGF 1-14 peptide in concentrations from 5 to 20 μg/mL and the vehicle was administered intra-implantally in the dorsal region of Sprague-Dawley rats (10 animals for each concentration), in a volume of 0.05 mL using a very fine syringe.
The solution was administered intra-implantally in the dorsal region of Sprague-Dawley rats (10 animals for each concentration), in a volume of 0.05 mL using a very fine syringe.
After the intra-implant injections, the Plantar thermal hyperalgesia test was conducted. In particular: after 1, 3, 5 and 24 h the thermal sensitivity was determined using the Hargreaves apparatus (HA).
Hypersensitivity to heat was assessed using the rat plantar test apparatus (Ugo Basile, Italy) following the method described by Hargreaves et al. (1988). The plantar test uses three perspex boxes (22×19×25 cm) placed on an elevated glass table. The rats were housed in each box, so that 3 rats could be tested simultaneously in a single apparatus and allowed to acclimate for at least 10 minutes. A mobile infrared heat source was applied to the plantar surface of the hind legs.
Paw retraction latency was defined as the time (in seconds) it took the rat to remove the hind leg from the heat source. The heat source was calibrated to an intensity of 15 IR and a cut-off of 50 sec was applied to prevent tissue damage. The test was performed at 1, 3, 5 and 24 hours after the injection. Each paw was tested twice per session (raw data represents the average of 2 measurements performed at an interval of approximately 5 minutes).

Substance | EC50 [1] [nM] | percentage of animals with a degree of depigmentation less than or equal to 2 [2] [%] | percentage of animals with a moderate degree of depigmentation equal to 3 [2] [%] | percentage of animals with a severe degree of depigmentation greater than or equal to 4 [2] [%] | Nerve endings density (mm/mm^3) NF200 (sensory nerve fibers; large diameter fibers) | Nerve termination density unit of measurement (mm/mm^3) TRPV1 (sensory nerve fibers; small diameter peripheral sensory fibers) | hyperalgesic activity compared to the saline group (paw retraction latency) (Sprague-Dawley rats; 10 μg/50 μL) | hyperalgesic activity compared to the saline group (paw retraction latency) (Sprague-Dawley rats; 20 μg/50 μL) | hyperalgesic effect compared with NGF 1-14 at 10 and 20 μg/50 μL (Sprague-Dawley rats; 10 μg/50 μL, P<0.05 at 1-3-24 h and P<0.01 at 5 h)
NGF: Nerve growth factor, whole human NGF protein used as a control | 0.06 | 37.5 | 37.5 | 25 | 350 + 50 mm/mm^3 | 200 + 36 mm/mm^3 | – | – | –
SSSHPIFHRGEFSV [NGF 1-14, SSSHPIFHRGEFSV] | 1200 | – | – | – | – | – | showed hyperalgesic activity | showed hyperalgesic activity | –
rh-NGF: rh-NGF protein, whole protein NGF comparator in the tolerability test | – | – | – | – | – | – | showed hyperalgesic activity | – | more pronounced significant hyperalgesic effect
